From patent US6359009B1, “Substituted anilide insecticidal agents” (BASF Aktiengesellschaft, priority 1998, dated 2002)
Counter-ions that a name gives are not always drawn.

Tests used:
[1] = system: Diabrotica undecimrunctata howardi, 3rd instar southern corn rootworm; experiment: Evaluation against 3rd instar southern corn rootworm, treated talc/soil jar test, mortality after 5 days; type: in vivo, Diabrotica undecimpunctata howardi; conditions: mortality rating 0-9 after 5 days in soil
Procedure: (§1) Test solutions are prepared by dissolving the test compound in a 35% acetone in water mixture to give a concentration of 10,000 ppm. Subsequent dilutions are made with water as needed.
Diabrotica undecimrunctata howardi, 3rd instar southern corn rootworm
(§2) One cc of fine talc is placed in a 30 mL wide-mouth screw-top glass jar. One mL of the appropriate acetone test solution is pipetted onto the talc so as to provide 1.25 mg, 0.25 mg or 0.025 mg of active ingredient per jar. The jars are set under a gentle air flow until the acetone is evaporated. The dried talc is loosened, 1 cc of millet seed is added to serve as food for the insects and 25 mL of moist soil is added to each jar. The jar is capped and the contents thoroughly mixed mechanically. Following this, ten 3rd instar rootworms are added to each jar and the jars are loosely capped to allow air exchange for the larvae. The treatments are held for 5 days when mortality counts are made. Missing larvae are presumed dead, since they decompose rapidly and can not be found.

[2] = system: Diabrotica virgifera virgifera Leconte, 3rd instar western corn rootworm; experiment: Evaluation against 3rd instar western corn rootworm, treated talc/soil jar test, mortality after 5 days; type: in vivo; conditions: mortality rating 0-9 after 5 days in soil
Procedure: as §1
Diabrotica virgifera virgifera Leconte, 3rd instar western corn rootworm
as §2

Compound	Southern Corn Rootworm (1 ppm) rating [1]	Southern Corn Rootworm (10 ppm) rating [1]	Southern Corn Rootworm (50 ppm) rating [1]	Western Corn Rootworm (1 ppm) rating [2]	Western Corn Rootworm (10 ppm) rating [2]	Western Corn Rootworm (50 ppm) rating [2]
CC(C)C(=O)C(C)(C)C(=O)Nc1ccc(C(F)(F)F)cc1 [Compound 1, α,α,α-Trifluoro-2,2,4-trimethyl-3-oxo-p-valerotoluidide]	9.0	9.0	9.0			
CC(C)C(=O)C(C)(C)C(=O)N(C)c1ccc(Cl)cc1 [Compound 2, 4′-Chloro-N,2,2,4-tetramethyl-3-oxo-valeranilide]	0.0	0.0	3.5			
CC(C)C(O)C(C)(C)C(=O)Nc1ccc(Cl)cc1 (centres unmarked) [Compound 3, 4′-chloro-3-hydroxy-2,2,4-trimethylvaleranilide]	0.0	4.0	8.0			
CC(C)C(O)C(C)(C)C(=O)Nc1ccc(C(F)(F)F)cc1 (stereo not drawn) [Compound 4, α,α,α-Trifluoro-3-hydroxy-2,2,4-trimethyl-p-valerotoluidide]	0.0	0.0	9.0			
CC(C)SC(C)(C)C(=O)Nc1ccc(C(F)(F)F)cc1 [Compound 5, α,α,α-Trifluoro-2-(isopropylthio)-2-methyl-p-propionotoluidide]	0.0	0.0	9.0			
CC(C)C(=O)C(C)(C)C(=O)N(C(=O)c1ccc(C(F)(F)F)cc1)c1ccc(C(F)(F)F)cc1 [Compound 6, α,α,α,α′,α′,α′-Hexafluoro-N-(2,2,4-trimethyl-3-oxovaleryl)-p-tolu-p-toluidide]	2.0	9.0	9.0			
CC(C)C(=O)C(C)(C)C(=O)N(C(=O)c1ccc(Cl)cc1)c1ccc(C(F)(F)F)cc1 [Compound 7, 4-Chloro-α,α,α-trifluoro-N-(2,2,4-trimethyl-3 oxovaleryl)-p-benzotoluidide]	0.0	9.0	9.0			
CC(C)C(=O)C(C)(C)C(=O)N(C(=O)c1c(F)cccc1F)c1ccc(C(F)(F)F)cc1 [Compound 8, α,α,α,2,6-Pentafluoro-N-(2,2,4#trimethyl-3 oxovaleryl)-p-benzotoluidide]	0.0	0.0	4.0			
CC(=O)OC(C(C)C)C(C)(C)C(=O)Nc1ccc(C(F)(F)F)cc1 (stereo not drawn) [Compound 9, α,α,α-Trifluoro-3-hydroxy-2,2,4-trimethyl-p-valerotoluidide, acetate (ester)]	0.0	8.3	8.3			
CC(C)/C(=N\O)C(C)(C)C(=O)Nc1ccc(C(F)(F)F)cc1 [Compound 10, α,α,α-Trifluoro-2,2,4-trimethyl-3-oxo-p-valerotoluidide, 3-oxime]			7.0			
CC(C)(C(=O)Nc1ccc(C(F)(F)F)cc1)C(=O)C(C)(C)c1ccccc1 [Compound 11, α,α,α-Trifluoro-2,2,4-trimethyl-3-oxo-4-phenyl-p-valerotoluidide]			6.0			
CC(C)[S+]([O-])C(C)(C)C(=O)Nc1ccc(C(F)(F)F)cc1 (stereo not drawn) [Compound 12, α,α,α-Trifluoro-2-(isopropylsulfinyl)-2-methyl-p-propionotoluidide]	8.0	9.0	9.0	0.0	0.0	9.0
CC(C)S(=O)(=O)C(C)(C)C(=O)Nc1ccc(C(F)(F)F)cc1 [Compound 13, α,α,α-Trifluoro-2-(isopropylsulfonyl)-2-methyl-p-propionotoluidide]	3.0	9.0	9.0			
CC(=O)OC(C(C)C)C(C)(C)C(=O)Nc1ccc(Cl)cc1 (centres unmarked) [Compound 14, 4′-chloro-3-hydroxy-2,2,4-trimethylvaleranilide, acetate (ester)]	9.0	9.0	9.0			
COC(C(C)C)C(C)(C)C(=O)Nc1ccc(Cl)cc1 (centres unmarked) [Compound 28, 4′-Chloro-3-methoxy-2,2,4-trimethylvaleranilide]				0.0	5.0	9.0
CC(C)C(=O)C(C)C(=O)Nc1ccc(C(F)(F)F)cc1 (stereo not drawn) [Compound 29, α,α,α-Trifluoro-2,4-dimethyl-3-oxo-p-valerotoluidide]				0.0	0.0	8.5
CC(C)OC(C)(C)C(=O)Nc1ccc(C(F)(F)F)cc1 [Compound 30, α,α,α-Trifluoro-2-isopropoxy-2-methyl-p-propionotoluidide]				0.0	9.0	9.0
CC(C)C(=O)C(C)(Cl)C(=O)Nc1ccc(C(F)(F)F)cc1 (centres unmarked) [Compound 31]				0.0	0.0	4.0
CC(C)CC(C)C(=O)Nc1ccc(C(F)(F)F)c(OC(F)F)c1 (stereo not drawn) [Compound 32, 3-(Difluoromethoxy)-α,α,α-trifluoro-2,4-dimethyl-p-valerotoiuidide]				0.0	4.0	4.0
CC(C)C(OC=O)C(C)(C)C(=O)Nc1ccc(C(F)(F)F)cc1 (stereo not drawn) [Compound 33, α,α,α-Trifluoro-3-hydroxy-2,2,4-trimethyl-p-valerotoiuidide, formate (ester)]				0.0	5.0	9.0
CC(C)(C)OC(C)(C)C(=O)Nc1ccc(C(F)(F)F)cc1 [Compound 34, 2-tert-Butoxy-α,α,α-trifluoro-2-methyl-p-propionotoluidide]				2.0	9.0	9.0
CCOC(C)(C)C(=O)Nc1ccc(C(F)(F)F)cc1 [Compound 35, 2-Ethoxy-α,α,α-trifluoro-2-methyl-p-propionotoluidide]				0.0	3.0	9.0
CC(C)C(=O)C(C)(C)C(=O)N(C)c1ccc(C(F)(F)F)cc1 [Compound 36, α,α,α-Trifluoro-N,2,2,4-tetramethyl-3-oxo-p-valerotoluidide]				2.0	9.0	9.0
CC(C)C(=O)C(C)(C)C(=O)Nc1ccc(Cl)cc1 [Compound 37, 4′-Chloro-2,2,4-trimethyl-3-oxovaleranilide]	0.0	9.0	9.0			
